Test results from PMC9007350, “Aurintricarboxylic acid is a canonical disruptor of the TAZ-TEAD transcriptional complex” (PLoS ONE, 2022).
Where two headings read alike, the source gives them in different places.

What was measured:
[1] = molecular target: T1, TAZ-TEAD complex (human TAZ (23-57) probe, human TEAD4 (217-434)) (Homo sapiens, UniProt Q15561); assay: TAZ-TEAD fluorescence polarization assay; format: binding; details: TEAD4 350 nM, probe 25 nM
T1 construct: made in house
Method: Human YAP (61–100), human TAZ (23–57) and mouse Vgll1 (26–51) peptide probes were used; all the probes had carboxyfluorescein labels. Human TEAD4 (217–434) was used in the assay at a concentration of 350 nM and the peptide probe concentration was 25 nM. Disruptors were titrated at concentrations ranging from 0–150 μM to the probe-TEAD complex, and the mixtures were incubated at 25°C for 20 min. Then, polarization measurements were taken using a Victor3 (PerkinElmer) plate reader.

HEK293 cells = assay: LDH cytotoxicity assay, HEK293; format: cell-based; details: HEK293, concentrations used
Method: (§1) Soft agar colony growth assay was performed as previously described. The colonies were counted using Image-Pro Plus 7.0 software (Media Cybernetics). ATA cytotoxicity was assessed using the CyQUANT LDH Cytotoxicity Assay Kit (ThermoFisher) and was performed as per the manufacturer’s protocol.
(§2) NIH3T3 and HEK293 cells were treated with the indicated concentrations of ATA and the cytotoxicity was evaluated by calculating the amount of intracellular LDH released into the media. LDH absorbance after complete cell lysis is considered as 100% cytotoxicity and the absorbance after ATA treatment was normalized accordingly. (TIF) Click here for additional data file.

[2] = test system: NIH3T3 cells expressing TAZ-CAMTA1; assay: Soft agar colony growth assay, TAZ-CAMTA1; format: cell-based
Method: as §1

NIH3T3 cells = assay: LDH cytotoxicity assay, NIH3T3; format: cell-based; details: NIH3T3, concentrations used in soft agar assay
Method: as §1, §2

[3] = test system: NIH3T3 expressing TAZ S89A; assay: Soft agar colony growth assay, TAZ S89A; format: cell-based
Method: as §1

[4] = test system: NIH3T3 cells expressing NRAS G12V; assay: Soft agar colony growth assay, NRAS G12V; format: cell-based
Method: as §1

TEAD4 = molecular target: T2, TEAD4 (Homo sapiens, UniProt Q15561); assay: ThermoFluor assay, TEAD; format: binding; details: protein 5 μM
T2 construct: ThermoFluor assays measuring the melting temperatures (Tm) of full-length TAZ or TEAD in the presence of ATA; strep (N, cleaved yes); made in house; host or cells: Escherichia coli BL21(DE3)pLysS
T2 sequence (Q15561 whole entry): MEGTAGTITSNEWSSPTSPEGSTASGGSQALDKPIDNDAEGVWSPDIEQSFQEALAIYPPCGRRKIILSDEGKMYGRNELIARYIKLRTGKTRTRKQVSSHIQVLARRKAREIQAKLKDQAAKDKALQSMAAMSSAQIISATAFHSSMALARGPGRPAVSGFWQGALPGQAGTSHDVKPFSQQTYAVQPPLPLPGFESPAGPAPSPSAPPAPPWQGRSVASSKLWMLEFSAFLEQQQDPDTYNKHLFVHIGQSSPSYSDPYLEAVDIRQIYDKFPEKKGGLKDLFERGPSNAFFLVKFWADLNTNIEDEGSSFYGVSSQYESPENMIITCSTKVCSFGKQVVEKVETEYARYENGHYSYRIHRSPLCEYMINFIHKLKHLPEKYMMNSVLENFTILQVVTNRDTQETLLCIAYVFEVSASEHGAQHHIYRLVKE
Method: To assess changes in protein stability, a dye-based thermal melting assay (ThermoFluor) was used. Purified protein (TAZ or TEAD4), ATA, and Protein Thermal Shift dye (ThermoFisher) were mixed in 96-well plates. The final concentration of the protein was 5 μM. The melting temperature was measured using LightCycler 480 (Roche). Each experiment was repeated at least twice.

T1 sequence (Q15561 217-434, one chain of several): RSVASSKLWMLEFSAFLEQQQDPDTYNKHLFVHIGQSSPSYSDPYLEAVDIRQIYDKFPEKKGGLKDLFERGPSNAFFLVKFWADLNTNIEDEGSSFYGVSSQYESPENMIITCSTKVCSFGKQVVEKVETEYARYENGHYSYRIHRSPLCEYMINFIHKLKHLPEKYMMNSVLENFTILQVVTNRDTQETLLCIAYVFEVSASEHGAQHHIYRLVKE

In the case of `O=C(O)C1=CC(=C(c2ccc(O)c(C(=O)O)c2)c2ccc(O)c(C(=O)O)c2)C=CC1=O` [ATA, aurintricarboxylic acid], the IC50 ([1]; acylated TEAD, read-out: IC50, TAZ-TEAD FP assay, acylated TEAD) is reported as 68 µM, the IC50 ([1]; deacylated TEAD, read-out: IC50, TAZ-TEAD FP assay, deacylated TEAD) is reported as 72 µM and the “cytotoxicity, LDH release” value (HEK293 cells) is reported as “did not show cytotoxicity”. The “TC-driven soft agar colony growth” value [2] was “dose-dependent reduction”, the “cytotoxicity, LDH release” value (NIH3T3 cells) was “did not show cytotoxicity” and the “soft agar growth driven by TAZ S89A” value [3] was “inhibited soft agar growth”. For the same compound, the “NRAS G12V-induced soft agar growth” value [4] was “unaffected”, the “shift in Tm in the ThermoFluor assay (in words)” value (TEAD4; TAZ or TEAD) was “increased the Tm” and the “melting temperature (Tm) of TEAD + ATA” value (TEAD4; full-length TEAD) was 54.8 °C.
